Test results published in US20180353460A1, “METHODS OF TREATING UROLOGICAL DISORDERS USING SARMs” (priority 2014, published 2018).
Where “and” joins values, the source holds several entries; their conditions need not be identical. Equal values may be shown once. Entries after “also recorded” stand apart in the source; their conditions may differ.

Assays:
[1] = Serum drug concentration by LC-MS/MS in ovariectomized mice; type: in vivo; settings: female, mouse, oral, 28 days
Description: (§1) Six to eight week old female mice (n=5-7) purchased from JAX® Mice were ovariectomized (OVX) or sham operated. Twenty days after OVX, treatment was initiated as outlined in the table below. Compounds of Formulas IX and VIII were dissolved in DSMO/PEG 300 (15:85) and were administered by oral gavage. Body weight and MRI measurements, to evaluate total body lean mass, were recorded at the beginning and at the end of the treatment. The animals were treated for twenty-eight days and then sacrificed, pelvic floor muscles isolated, weighed and stored for RNA and protein extraction. The expression of genes involved in catabolism and anabolism of muscle was measured by mRNA analysis. The serum concentrations of the drugs were measured by LC-MS/MS. The statistical analysis was performed using JMP Pro® software utilizing one way analysis of variance.
After samples were thawed, a 100 μL aliquot of mouse serum from each sample was mixed with 200 μL acetonitrile containing 200 nM compound of Formula XIII as the internal standard. After each sample was thoroughly vortex for 15 seconds, the sample was centrifuged at 3000 rpm for 10 min. Approximately 200 μL supernatant was transferred for LC-MS/MS analysis
Stock solutions of compounds of Formulas IX and VIII were 100 μM in DMSO. A dilution of 1:50 with control mouse serum was made and 200 μL of 2 μM was added to the first micro centrifuge tube. […] Transferred 100 μL from tube 1 (2 μM) to tube 2, vortexed and continued the 2 fold dilution through tube 7. 200 μL of acetonitrile containing 200 nM compound of Formula XIII as the internal standard was added to each tube. After vortexing and centrifuging, 200 μL was transferred to LC-MS/MS analysis. The concentration of each standard curve ranged from 1 μM to 0.0078 μM.
The analysis of compounds of Formulas IX and VIII in serum was performed using LC-MS/MS system consisting of Agilent 1100 HPLC with an MDS/Sciex 4000 Q-Trap™ mass spectrometer. The separation was achieved using a C18 analytical column (Alltima™, 2.1×100 mm, 3 μm) protected by a C18 guard column (Phenomenex™ 4.6 mm ID cartridge with holder). Mobile phase was consisting of channel A (95% acetonitrile+5% water+0.1% formic acid) and channel C (95% water+5% acetonitrile+0.1% formic acid) and was delivered isocratically at a flow rate of 0.4 mL/min. The total runtime for compound of Formula IX was 4.5 min, and the volume injected was 10 μL. The total runtime for compound of Formula VIII was also 4.5 min, and the volume injected was 10.0 μL. Multiple reaction monitoring (MRM) scans were made with curtain gas at 30 for compound of Formula IX, 25 for compound of Formula VIII; collision gas at medium for compound of Formula IX, high for compound of Formula VIII; nebulizer gas and auxiliary gases at 60 and source temperature at 550° C. for both. Molecular ions were formed using an ion spray voltage (IS) of 4200 V (negative mode). Declustering potential (DP), entrance potential (EP), collision energy (CE), product ion mass, and cell exit potential (CXP) were optimized with the values of −20.0, −10.0, −30.0, and −15.0, respectively, for the mass pair 388.1/118.1 (compound of Formula IX). Declustering potential (DP), entrance potential (EP), collision energy (CE), product ion mass, and cell exit potential (CXP) were optimized with the values of −95.9, −9.94, −40.0, and −15.0, respectively, for the mass pair 354.0/118.1 (compound of Formula VIII).
Animals were sacrificed 24 h after the last dose to measure the steady state concentration.

pelvic floor muscles = test: Pelvic floor muscle weight, body weight, lean mass and histology in ovariectomized female mice; type: in vivo, mouse; settings: OVX mice, 0.5-5 mg/kg/day p.o., 28 days; for pelvic floor muscle weight (cumulative COC, Pc and IL): vs OVX animals
Description: as §1
Pelvic floor muscles were paraffin embedded and sections were stained for collagen (Mason trichrome) and elastin (Van Gieson). Stains were evaluated by a pathologist for fiber length and stain intensity.
The pelvic floor muscles in mice are small making the unmagnified visualization difficult. In order to improve the resolution, the pelvic regions of the mice were immersed in formalin for two days after sacrifice before dissecting them under microscope along with precise weight measurement. The COC, Pc, and IL were isolated and weighed using a microbalance that has a resolution as low as a microgram.
Six to eight week old female mice (n=6-8/group) were ovariectomized (OVX) or sham operated. One month after OVX, when the serum hormone levels were at trough, body composition was measured by MRI and treatment was initiated with vehicle or a dose response of one of two SARMs. Twenty eight days after treatment initiation, body composition was again measured, animals were sacrificed, and pelvic floor muscles were weighed. Serum drug concentrations were measured by LC-MS/MS. Muscle sections were stained for collagen and elastin to evaluate the effect of SARMs on architecture. Data were analyzed by One Way ANOVA followed by Tukey test.

[2] = tested on: postmenopausal women with SUI; test: Proof of concept clinical study: stress leaks per day by 3 day voiding diary; type: in vivo, human
Description: This was initially a single site, proof of concept feasibility study to describe the effect of the S-isomer of the compound of Formula IX (Compound IX) 3 mg in postmenopausal female subjects with SUI. However, data presented herein were from subjects seen at 3 separate sites.
Described is the effect of 12 weeks of treatment of Compound IX on the number of stress urinary incontinence episodes/day as assessed by the 3 day voiding diary. See leaks/day data in Tables 2 (individual subject data from all 3 sites), Tables 4-6 (mean stress leaks for sites 1, 2, and 3, respectively), and FIG. 10 (mean stress leaks/day across all sites). Further, see Table 3 for the durability of this response in subjects assessed at 16, 24, 32 and 40 weeks (and their pad weights).
Subjects were instructed to take one 3 mg softgel capsule per day by mouth, without regard to food intake.
This is a proof of concept feasibility study, so no power calculation was needed. Therefore, up to 35 subjects meeting inclusion/exclusion criteria would be recruited until the enrolled subjects have completed treatment. Further, durability was assessed at 40 weeks. Descriptive statistics were performed to explore changes in primary and secondary outcomes measures between baseline and weeks 12 (end of treatment) or 40 (durability). The primary efficacy measure was a reduction in the number of stress incontinence episodes/day. […] Safety will be determined by the number and type of adverse events reported during treatment, but is reported here from historical data from other clinical trials. Various imputation methods may be explored.
Change in frequency of daily stress urinary incontinence episodes from Baseline to Week 12 and durability at 40 weeks (28 weeks after Compound IX treatment is discontinued).
The data were collected from first 18 patients at 12 weeks and are derived from number of stress leaks reported by subjects in a 3 day voiding diary. […] Table 3 provides durability data of Compound IX for 18 patients and depicts that, for the first 9 subjects, this response was durable out to 40 weeks, i.e., 28 weeks (7 months) after treatment with Compound IX was discontinued. Data collection and analysis is ongoing.

Compound	concentration at 24 h after the last dose ([1]; 0.5 mpk p.o.) [µM]	concentration at 24 h after the last dose ([1]; 2.5 mpk p.o.) [µM]	concentration at 24 h after the last dose ([1]; 5 mpk p.o.) [µM]	pelvic floor muscle weight (cumulative COC, Pc and IL) (pelvic floor muscles)	mean stress leaks/day at 40 weeks ([2]; N=9, 7 months after discontinuation) [leaks/day]	Stress Leaks % Reduction ([2]; Site 1 (n = 10), week 12) [%]	Stress Leaks % Reduction ([2]; Site 2 (n = 5), week 12) [%]	Stress Leaks % Reduction ([2]; Site 3 (n = 2), week 12) [%]	reduction of mean stress leaks/day from baseline to week 12 ([2]; all sites, 18 patients) [%]	mean stress leaks/day at week 12 ([2]; all sites, 18 patients, baseline 5.17)	Leaks/Day (Week 12), stress leaks ([2]; individual patients, 3 mg/day p.o., week 12)	Durability of response: % Reduction in leaks/day Week 16 ([2]; individual patients, 4 weeks post-treatment)	Durability of response: % Reduction in leaks/day Week 24 ([2]; individual patients, 12 weeks post-treatment)	Durability of response: % Reduction in leaks/day Week 32 ([2]; individual patients, 20 weeks post-treatment)	Durability of response: % Reduction in leaks/day Week 40 ([2]; individual patients, 28 weeks post-treatment)	patients who were responders (50% or greater reduction in stress leaks/day) ([2]; week 12, 18 patients)	total lean body mass by MRI (pelvic floor muscles)	coccygeus (COC) muscle weight (pelvic floor muscles; vs OVX controls)
C[C@](O)(COc1ccc(C#N)cc1)C(=O)Nc1ccc(C#N)c(C(F)(F)F)c1 [Compound IX, (S)—N-(4-Cyano-3-(trifluoromethyl)phenyl)-3-(4-cyanophenoxy)-2-hydroxy-2-methylpropanamide]	0.862	3.85	6.07	increase the weight of pelvic floor muscles	0.63	86	75	78	81	1.0 leaks/day and 1.00 leaks/day	2.33 leaks/day and 0 leaks/day (3×) and 1 leaks/day (2×) and 1.33 leaks/day (2×) and 0.33 leaks/day (3×) and 1.66 leaks/day and 1.30 leaks/day and .67 leaks/day and 2.3 leaks/day and .33 leaks/day and 3 leaks/day and 0.67 leaks/day	77% and 100% (5×) and 60% and 50% and 92% and 89% and 79% and 78% and 64% and 65%	69% and 100% (6×) and 70% and 42% and 95% and 10% and 57% and 78% and 50% and 60%	54% and 95% and 100% (3×) and 17% and 50% and 36% and 55% and 93%	69% and 100% (5×) and 80% and 42% and 72%	all patients were responders and All 18 patients were responders and All 18 subjects and all 18 subjects and 18 of 18	–	–
C[C@](O)(COc1ccc(C#N)cc1)C(=O)Nc1ccc(C#N)c(Cl)c1 [VIII, (S)—N-(3-Chloro-4-cyanophenyl)-3-(4-cyanophenoxy)-2-hydroxy-2-methylpropanamide]	0.429	2.44	4.1	performed better than compound of Formula IX in increasing the muscle weights; also recorded: increase the weight of pelvic floor muscles	–	–	–	–	–	–	–	–	–	–	–	–	more potent than Compound IX in increasing lean mass	more potent than Compound IX
